Source: PMC11919252 (eLife, 2025)

Columns and labels:
[1] = test system: WT and Tac1::Calca DKO mice; conditions: background statement on oxaliplatin; ref MacDonald et al., 2021; cited from earlier work
From the text: Lastly, we investigated how dual peptide deletion affected the development of allodynia symptoms, where innocuous stimuli are perceived as painful, in two mouse models of neuropathic pain ([Jensen and Finnerup, 2014]).

[2] = test system: WT and Tac1::Calca DKO mice; assay: Oxaliplatin cold allodynia, Cold Plate; format: in vivo, mouse; conditions: intraplantar oxaliplatin, one day after treatment, Cold Plate at 10 °C, 5 min
From the text: The plate was set to the desired temperature. A camera set up with a mirror was used for better visibility of the mouse on the hot plate. A clear cylindrical tube was placed around the hot plate to ensure the mouse cannot escape. Once the hot plate reached the set temperature, the mouse was placed on the hot plate and the top of the cylinder was covered. At the cut-off time, the mouse was taken off the hot plate and placed back in the cage. The latency to lick was scored post-hoc using the recorded videos by a blinded observer.
Chemotherapy-induced neuropathy was induced in mice by intraplantar injection of oxaliplatin into the left hind paw ([Deuis et al., 2013]; [MacDonald et al., 2021]). Oxaliplatin was made up to a dose of 80 µg in 40 µl of 5% glucose solution, due to its instability in chloride-containing saline solution. The number of nocifensive behaviors in 5 min was assessed on the Cold Plate held at 10 °C 24 hr later.

Q: Which results are given for `O=C1[O][Pt]2([NH][C@@H]3CCCC[C@H]3[NH]2)[O]C1=O` [oxaliplatin]?
A: Cold allodynia evoked by oxaliplatin [1]: evokes extreme cold allodynia; Pain-like behaviors on Cold Plate [2]: both DKO and WT animals displayed pronounced pain-like behaviors
